The nature of data set [1]: In vitro antibacterial activity was determined; antibacterial potency is less than 50% of that of lasalocid. The data set is classed as functional.
Data set [2] is described as follows: Partition coefficient (logP). Format: physicochemical. As to conditions: octanol/water.
Data set [3] in a line: Dissociation constant was determined. Format: physicochemical.
The nature of data set [4]: In vitro antibacterial activity was determined. Format: functional.

In data set [1], `CCCCCCCCCC(=O)Oc1c(C)ccc(CC[C@@H](C)[C@H](O)[C@H](C)C(=O)[C@H](CC)[C@H]2O[C@](CC)([C@H]3CC[C@](O)(CC)[C@H](C)O3)C[C@@H]2C)c1C(=O)O` had an Activity of 0. In data set [2], this compound had a log partition coefficient (logP) of 2.75.

In turn, `CC[C@@H](C(=O)[C@@H](C)[C@@H](O)[C@H](C)CCc1c(/N=C/c2ccccc2)cc(C)c(O)c1C(=O)O)[C@H]1O[C@](CC)([C@H]2CC[C@](O)(CC)[C@H](C)O2)C[C@@H]1C` showed an Activity in data set [1] of 0. The compound also showed a logP in data set [2] of 0.86.

In data set [1], `CC[C@@H](C(=O)[C@@H](C)[C@@H](O)[C@H](C)CCc1ccc(C)c(OC(=O)c2ccc(Br)cc2)c1C(=O)O)[C@H]1O[C@](CC)([C@H]2CC[C@](O)(CC)[C@H](C)O2)C[C@@H]1C` gave an Activity of 0. The logP in data set [2] amounted to 3.48.

In data set [3], `CC[C@@H](C(=O)[C@@H](C)[C@@H](O)[C@H](C)CCc1c([N+](=O)[O-])cc(C)c(O)c1C(=O)O)[C@H]1O[C@](CC)([C@H]2CC[C@](O)(CC)[C@H](C)O2)C[C@@H]1C` displayed a pKa of 2.4. Also, the Activity in data set [1] came to 0. For the same compound, the logP in data set [2] amounted to 2.46.

The compound `CCCCCCCC(=O)Oc1c(C)ccc(CC[C@@H](C)[C@H](O)[C@H](C)C(=O)[C@H](CC)[C@H]2O[C@](CC)([C@H]3CC[C@](O)(CC)[C@H](C)O3)C[C@@H]2C)c1C(=O)O` had an Activity in data set [1] of 0. The logP in data set [2] was found to be 2.21.

In data set [1], `CCCCC(=O)Oc1c(C)ccc(CC[C@@H](C)[C@H](O)[C@H](C)C(=O)[C@H](CC)[C@H]2O[C@](CC)([C@H]3CC[C@](O)(CC)[C@H](C)O3)C[C@@H]2C)c1C(=O)O` came in with an Activity of 0. Moreover, the logP in data set [2] turned out to be 2.08.

Consider `CC[C@@H](C(=O)[C@@H](C)[C@@H](O)[C@H](C)CCc1c(NC(C)=O)cc(C)c(O)c1C(=O)O)[C@H]1O[C@](CC)([C@H]2CC[C@](O)(CC)[C@H](C)O2)C[C@@H]1C`, for which the pKa in data set [3] stood at 4.3. The Activity in data set [1] is reported as 0. Also, in data set [2], the logP came to 1.04.

Compound `CC[C@@H](C(=O)[C@@H](C)[C@@H](O)[C@H](C)CCc1c(N)cc(C)c(O)c1C(=O)O)[C@H]1O[C@](CC)([C@H]2CC[C@](O)(CC)[C@H](C)O2)C[C@@H]1C` [AMINOLASALOCID] registered a pKa in data set [3] of 6. For the same compound, the Activity in data set [1] amounted to 0. For the same compound, in data set [2], the lipophilicity (logP) was 0.28.

`CC[C@@H](C(=O)[C@@H](C)[C@@H](O)[C@H](C)CCc1c(Br)cc(C)c(O)c1C(=O)O)[C@H]1O[C@](CC)([C@H]2CC[C@](O)(CC)[C@H](C)O2)C[C@@H]1C` [BROMOLASALOCID]: in data set [4], the Activity is 1. Further, the pKa in data set [3] worked out at 3.9. The compound also came in with a logP in data set [2] of 3.25.

`CC[C@@H](C(=O)[C@@H](C)[C@@H](O)[C@H](C)CCc1c(Cl)cc(C)c(O)c1C(=O)O)[C@H]1O[C@](CC)([C@H]2CC[C@](O)(CC)[C@H](C)O2)C[C@@H]1C` [CHLOROLASALOCID]: the Activity in data set [4] was 1. Moreover, the pKa in data set [3] was determined as 4. Moreover, the logP in data set [2] came out at 3.12.

With `CC[C@@H](C(=O)[C@@H](C)[C@@H](O)[C@H](C)CCc1c([N+]#N)cc(C)c(O)c1C(=O)O)[C@H]1O[C@](CC)([C@H]2CC[C@](O)(CC)[C@H](C)O2)C[C@@H]1C` [DIAZOLASALOCID], the pKa in data set [3] is 6.6. For the same compound, in data set [1], the Activity is listed as 0.

The compound `CC[C@@H](C(=O)[C@@H](C)[C@@H](O)[C@H](C)CCc1c(I)cc(C)c(O)c1C(=O)O)[C@H]1O[C@](CC)([C@H]2CC[C@](O)(CC)[C@H](C)O2)C[C@@H]1C` [IODOLASALOCID] registered an Activity in data set [4] of 1. In data set [3], this compound had a pKa of 3.9. The same compound showed a logP in data set [2] of 3.19.

The compound `CC[C@@H](C(=O)[C@@H](C)[C@@H](O)[C@H](C)CCc1ccc(C)c(O)c1C(=O)O)[C@H]1O[C@](CC)([C@H]2CC[C@](O)(CC)[C@H](C)O2)C[C@@H]1C` [LASALOCID] yielded an Activity in data set [4] of 1. Further, the pKa in data set [3] worked out at 4.4. Moreover, the logP in data set [2] was 2.83.

By logP is commonly meant the decadic logarithm of the partition coefficient of the neutral form, usually between octanol and water. As usually defined, the pKa is the negative logarithm of the acid dissociation constant. A higher pKa goes with a group that holds its proton tightly.
